Results as given in US11230526B1, “Cylcoalkenyl derivatives useful as agonists of the GPR120 and/or GPR40 receptors” (Janssen Pharmaceutica NV, priority 2018, dated 2022).

Columns and labels:
[1] = target: T1, short form of the GPR120 receptor (Homo sapiens, UniProt Q5NUL3); assay: Human GPR120 DiscoveRx PathHunter Beta-Arrestin assay, Procedure β-arrestin B; type: cell-based
T1 construct: host or cells: PathHunter CHO-K1 GPR120S β-Arrestin Cell Line
Excerpt: Human GPR120 DiscoveRx PathHunter® Beta-Arrestin Assay Assay Principle:
The binding of an agonist (medium/long chain fatty acids or small molecule agonists) to the G-protein-coupled receptor GPR120 activates phospholipase C, leading to release of intracellular Ca^+2 through the generation of inositol 1,4,5-trisphosphate (InsP3 or IP3). GPR120 activation can also trigger intracellular signaling via recruitment of Beta-Arrestin. In the present method, agonist-induced activation of the human GPR120 receptor is monitored through the use of PathHunter® CHO-K1 GPR120 Beta-Arrestin Cell Line engineered by DiscoveRx, as detailed below. The cell lines are designed to co-express both the ProLink/Enzyme Donor (PK)-tagged GPCR and the Enzyme […] (EA)-tagged Beta-Arrestin fusion proteins. Upon GPR120 receptor stimulation/activation, the EA-tagged Beta-Arrestin portion is translocated to the tagged receptor, where the two enzyme fragments are brought within close proximity. Under these conditions, these fragments can interact and form an active Beta-gal enzyme complex through Enzyme Fragment Complementation (EFC). This active Beta-gal complex can enzymatically hydrolyse the substrate to produce a detectable light signal; therefore, activation as a function of agonist concentration can be expressed as an EC50 value to determine relative compound activities. This in vitro assay therefore serves to assess compound agonist activity of the GPR120.
In Procedure β-arrestin B the cells used were PathHunter® CHO-K1 GPR120S β-Arrestin Cell Line, expressing the short form of the GPR120 receptor (Accession #[…]), with 5000 cells/well.
The selected CHO-K1 GPR120 β-Arrestin cells were cultured in Ham's F12 media supplemented with 10% fetal bovine serum (FBS), 1% Glutamine, 1×p/s, 800 μg/mL G418 and 300 μg/mL Hygromycin B (for selection). Cell stocks were maintained and grown in a sub-confluent state using standard cell culture procedures. The day before the experiment, the cells were harvested with non-enzymatic cell dissociation buffer and re-suspended in complete growth media at the desired concentration. A Corning 384-plate was then seeded with the proper number of cells in a volume of 25 μL, per well. The seeded plates were incubated overnight at 37° C.
On the day of the experiment, the Assay Buffer containing (a) HBSS with Ca^++ and Mg^++, (b) 20 mM HEPES, and (c) 0.1% BSA stabilizer (pH 7.4) was prepared. The growth medium was gently removed from the cell plates and 20 μL of Assay Buffer added to each well. The plate was then incubated at 37° C. for 60 min. Test compounds were serially diluted in Assay Buffer to desired concentrations (more particularly to one or more of the following μM concentrations: 25, 12.5, 6.25, 3.12, 1.56, 0.78, 0.39, 0.19, 0.10, 0.05, 0.02, 0.01). Five μL of compound dilution was then added to each well and the plate incubated at 37° C. for 90 min. The detection reagents were prepared according to the manufacture's instruction. Twelve μL of the detection reagents were added to each well and the plate incubated at room temperature for 60 min.
The plates were read on an EnVision instrument, using Protocol name: Luminescence, Plate type: 384 Costar, Measurement height: 3 mm, Measurement time: 1 s, Aperture: 384 Plate aperture. The % Activity relative to the positive control was calculated using the following equation:
The % Activity values were plotted versus the concentration of test compound and fitted to a sigmoidal dose-response curve with a Hill slope=1 (fixed value) using nonlinear regression with GraphPad Prism 5.0 to calculate the EC50 values. The Fitting Equation was: Y=Bottom+(Top-Bottom)/(1+10^((Log EC50−X)*HillSlope)), where X is the log of the concentration and Y is the response.

[2] = target: T2, Human GPR120 short form (Homo sapiens, UniProt Q5NUL3); assay: Human GPR120 calcium flux assay, Procedure Calcium B (4200 cells/well); type: cell-based
T2 construct: expressed in transfected cells
T2 sequence (Q5NUL3 1-361): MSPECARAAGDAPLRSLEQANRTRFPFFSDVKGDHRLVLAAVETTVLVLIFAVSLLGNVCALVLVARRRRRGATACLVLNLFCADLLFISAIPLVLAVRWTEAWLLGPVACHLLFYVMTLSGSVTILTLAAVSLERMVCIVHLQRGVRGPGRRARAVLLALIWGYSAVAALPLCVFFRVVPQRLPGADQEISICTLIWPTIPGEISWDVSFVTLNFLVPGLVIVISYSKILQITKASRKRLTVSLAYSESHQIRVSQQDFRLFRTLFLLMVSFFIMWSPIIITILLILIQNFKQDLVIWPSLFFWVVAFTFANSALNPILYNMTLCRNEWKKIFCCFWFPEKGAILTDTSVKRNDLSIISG
Procedure, shortened: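 HEK293 cells stably expressing human GPR120 (NM_001195755.1), 4200 cells/well, starved 1 h and loaded with Fluo-4 NW plus probenecid. Ligand-evoked calcium flux read on FLIPR for 300 s after a 10 s baseline. RFU = Fmax−Fmin; EC50 from four-parameter concentration-response fit.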

T1 sequence (P32121 whole entry partner, one chain of several): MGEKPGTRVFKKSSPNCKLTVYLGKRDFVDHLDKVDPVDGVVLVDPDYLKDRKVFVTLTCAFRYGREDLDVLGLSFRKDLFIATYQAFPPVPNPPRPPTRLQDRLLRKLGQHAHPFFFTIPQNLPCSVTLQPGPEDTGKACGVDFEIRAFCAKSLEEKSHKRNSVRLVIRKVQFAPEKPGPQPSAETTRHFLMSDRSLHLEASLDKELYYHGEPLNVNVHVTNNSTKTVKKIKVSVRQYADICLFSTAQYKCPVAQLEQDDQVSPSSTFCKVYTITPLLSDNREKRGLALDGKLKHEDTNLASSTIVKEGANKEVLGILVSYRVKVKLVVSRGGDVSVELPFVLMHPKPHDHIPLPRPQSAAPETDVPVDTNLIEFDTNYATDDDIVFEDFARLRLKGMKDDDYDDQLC

SMILES	EC50 [1]	EC50 [2]
Cc1c(CCC(=O)O)ccc(OCC2=C(c3ccc(F)cc3)CCC2)c1C [Compound 4, 3-[4-[[2-(4-fluorophenyl)cyclopenten-1-yl]methoxy]-2,3-dimethyl-phenyl]Propanoic Acid]	164 nM	44 nM
Cc1c(CCC(=O)O)ccc(OCC2=C(c3ccc(Cl)cc3)CCC2)c1C [Compound 15, 3-(4-((2-(4-chlorophenyl)cyclopent-1-en-1-yl)methoxy)-2,3-dimethylphenyl)Propanoic Acid]	122 nM	70 nM
CCc1ccc(C2=C(COc3c(F)cc(CCC(=O)O)cc3F)CCC2)cc1 [Compound 16, 3-(4-((2-(4-ethylphenyl)cyclopent-1-en-1-yl)methoxy)-3,5-difluorophenyl)Propanoic Acid]	149 nM	49 nM
Cc1c(CCC(=O)O)ccc(OCC2=C(c3ccc(OC(F)(F)F)cc3)CCC2)c1C [Compound 20, 3-(2,3-dimethyl-4-((2-(4-(trifluoromethoxy)phenyl)cyclopent-1-en-1-yl)methoxy)phenyl)Propanoic Acid]	> 5000 nM	–
Cc1c(CCC(=O)O)ccc(OCC2=C(c3ccccc3)CCC2)c1C [Compound 23, 3-(2,3-dimethyl-4-((2-phenylcyclopent-1-en-1-yl)methoxy)phenyl)Propanoic Acid]	337 nM	114 nM
CCc1ccc(C2=C(COc3ccc(CCC(=O)O)c(F)c3F)CCC2)cc1 [Compound 25, 3-(4-((2-(4-ethylphenyl)cyclopent-1-en-1-yl)methoxy)-2,3-difluorophenyl)Propanoic Acid]	89 nM	–
CCc1ccc(C2=C(COc3ccc(CCC(=O)O)c(C)c3C)CCC2)cc1 [Compound 27, 3-(4-((2-(4-ethylphenyl)cyclopent-1-en-1-yl)methoxy)-2,3-dimethylphenyl)Propanoic Acid]	77 nM	58 nM
O=C(O)CCc1ccc(OCC2=C(c3ccc(Cl)cc3)CCC2)cc1F [Compound 47, 3-[4-[[2-(4-chlorophenyl)cyclopenten-1-yl]methoxy]-2-fluoro-phenyl]Propanoic Acid]	273 nM	103 nM
Cc1ccc(C2=C(COc3ccc(CCC(=O)O)c(C)c3C)CCC2)cc1 [Compound 52, 3-[2,3-dimethyl-4-[[2-(p-tolyl)cyclopenten-1-yl]methoxy]phenyl]Propanoic Acid]	63 nM	24 nM
Cc1c(CCC(=O)O)ccc(OCC2=C(c3cccc(Cl)c3)CCC2)c1C [Compound 58, 3-[4-[[2-(3-chlorophenyl)cyclopenten-1-yl]methoxy]-2,3-dimethyl-phenyl]Propanoic Acid]	275 nM	159 nM
O=C(O)CCc1cc(F)c(OCC2=C(c3ccc(Cl)cc3)CCC2)c(F)c1 [Compound 60, 3-[4-[[2-(4-chlorophenyl)cyclopenten-1-yl]methoxy]-3,5-difluoro-phenyl]Propanoic Acid]	359 nM	103 nM
Cc1cc(CCC(=O)O)ccc1OCC1=C(c2ccc(Cl)cc2)CCC1 [Compound 62, 3-[4-[[2-(4-chlorophenyl)cyclopenten-1-yl]methoxy]-3-methyl-phenyl]Propanoic Acid]	75 nM	27 nM

Next, values leading:

EC50 [1]	EC50 [2]	SMILES
1630 nM	614 nM	COc1cc(F)cc(C2=C(COc3ccc(CCC(=O)O)c(C)c3C)CCC2)c1 [Compound 65, 3-[4-[[2-(3-fluoro-5-methoxy-phenyl)cyclopenten-1-yl]methoxy]-2,3-dimethyl-phenyl]Propanoic Acid]
629 nM	205 nM	Cc1c(CCC(=O)O)ccc(OCC2=C(c3ccc(Cl)c(Cl)c3)CCC2)c1C [Compound 66, 3-[4-[[2-(3,4-dichlorophenyl)cyclopenten-1-yl]methoxy]-2,3-dimethyl-phenyl]Propanoic Acid]
73 nM	23 nM	O=C(O)CCc1ccc(OCC2=C(c3ccc(Cl)cc3)CCC2)c(F)c1F [Compound 70, 3-[4-[[2-(4-chlorophenyl)cyclopenten-1-yl]methoxy]-2,3-difluoro-phenyl]Propanoic Acid]
648 nM	245 nM	Cc1ccc(C2=C(COc3ccc(CCC(=O)O)c(F)c3F)CCC2)c(C)c1 [Compound 72, 3-(4-((2-(2,4-dimethylphenyl)cyclopent-1-en-1-yl)methoxy)-2,3-difluorophenyl)Propanoic Acid]
281 nM	136 nM	Cc1c(CCC(=O)O)ccc(OCC2=C(c3ccccc3Cl)CCC2)c1C [Compound 76, 3-[4-[[2-(2-chlorophenyl)cyclopenten-1-yl]methoxy]-2,3-dimethyl-phenyl]Propanoic Acid]
369 nM	122 nM	Cc1c(CCC(=O)O)ccc(OCC2=C(c3cccs3)CCC2)c1C [Compound 77, 3-[2,3-dimethyl-4-[[2-(2-thienyl)cyclopenten-1-yl]methoxy]phenyl]Propanoic Acid]
75 nM	34 nM	Cc1ccc(C2=C(COc3ccc(CCC(=O)O)c(F)c3F)CCC2)cc1F [Compound 78, 3-(2,3-difluoro-4-((2-(3-fluoro-4-methylphenyl)cyclopent-1-en-1-yl)methoxy)phenyl)Propanoic Acid]
596 nM	192 nM	Cc1c(CCC(=O)O)ccc(OCC2=C(c3nccs3)CCC2)c1C [Compound 79, 3-[2,3-dimethyl-4-[(2-thiazol-2-ylcyclopenten-1-yl)methoxy]phenyl]Propanoic Acid]
139 nM	19 nM	Cc1ccc(C2=C(COc3ccc(CCC(=O)O)c(C)c3C)CCC2)cc1F [Compound 80, 3-(4-((2-(3-fluoro-4-methylphenyl)cyclopent-1-en-1-yl)methoxy)-2,3-dimethylphenyl)Propanoic Acid]
1090 nM	242 nM	Cc1ccc(C2=C(COc3ccc(CCC(=O)O)c(C)c3C)CCC2)c(C)c1 [Compound 82]
630 nM	143 nM	Cc1ccc(C2=C(COc3ccc(CCC(=O)O)c(F)c3F)CCC2)cc1C [Compound 83, 3-(4-((2-(3,4-dimethylphenyl)cyclopent-1-en-1-yl)methoxy)-2,3-difluorophenyl)Propanoic Acid]
533 nM	290 nM	Cc1ccc(C2=C(COc3c(F)cc(CCC(=O)O)cc3F)CCC2)cc1C [Compound 84, 3-(4-((2-(3,4-dimethylphenyl)cyclopent-1-en-1-yl)methoxy)-3,5-difluorophenyl)Propanoic Acid]
725 nM	234 nM	Cc1ccc(C2=C(COc3ccc(CCC(=O)O)c(C)c3C)CCC2)cn1 [Compound 85, 3-(2,3-dimethyl-4-((2-(6-methylpyridin-3-yl)cyclopent-1-en-1-yl)methoxy)phenyl)Propanoic Acid]
–	65 nM	Cc1c(CCC(=O)O)ccc(OCC2=C(c3ccc(Cl)cc3)CC(F)(F)C2)c1C [Compound 137, 3-[4-[[2-(4-chlorophenyl)-4,4-difluoro-cyclopenten-1-yl]methoxy]-2,3-dimethyl-phenyl]Propanoic Acid]
